In patent publication US9200008B2 (ASKA PHARMACEUTICAL CO., LTD., priority 2010, dated 2015) one finds minimal effective concentration data, which are given here for 62 compounds.

Molecules are shown by their SMILES.

The assay relates to Human prostate cancer cell lines (PC-3 cells). In words: Measurement of cell death-inducing activity (Test Example 1). The class given is cell-based. The note with it: PC-3, 48 h, 48 hours after addition, tested at 10, 1, 0.1, 0.025 and 0.00625 μmol/L, qualitative evaluation of 10 fields, read-out: Concentration showing the cell death-inducing activity (cell death-inducing rate not less than 40%). The procedure, abridged:
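PC-3 cells seeded at 1×10^5 cells/well and grown 48 h at 37 °C, 5% CO2, then exposed to compound at 10, 1, 0.1, 0.025 and 0.00625 μmol/L (DMSO control) for a further 48 h. Activity was called where cell death-inducing rate was not less than 40%.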

For the compound `CCn1cc2cc(COC(=O)Nc3sc(-c4ccc(F)cc4OC)nc3C)ccc2n1` [Example 9-153], the minimal effective concentration came out at 0.025 µM. Next, `CCc1nc(-c2ccc(F)cc2C)sc1NC(=O)OCc1ccc2c(cnn2CC)c1` [Example 9-361]: 0.1 µM. On to `CCn1cnc2cc(COC(=O)Nc3sc(-c4ncccc4C)nc3C)ccc21` [Example 9-196], for which the minimal effective concentration was 10 µM. Next, `CCn1cc2cc(NC(=O)OCc3cc(-c4ccc(Cl)cc4OC)nn3C)ccc2n1` [Example 13-133]: 0.00625 µM; `CCn1nc(-c2ccc(Cl)cc2OC)cc1NC(=O)OCc1ccc2c(cnn2C)c1` [Example 9-281]: 0.025 µM; `COc1ccc(COC(=S)Nc2sc(-c3ccc(Cl)cc3OC)nc2C)cc1` [Example 28-1, [2-(4-Chloro-2-methoxyphenyl)-4-methylthiazol-5-yl]thiocarbamic acid O-(4-methoxybenzyl)ester]: 10 µM.

In the case of `COc1cccc(/C=N/NC(=O)c2sc(-c3ccc(Cl)cc3OC)nc2C)c1` [Example 23-80], the minimal effective concentration was found to be 1 µM. In the case of `COc1cc(Cl)ccc1-c1cc(NC(=O)OCc2ccc3c(c2)ncn3C)sn1` [Example 45-2], the minimal effective concentration is 1 µM. Turning to `COc1ccc(/C=N/NC(=O)c2cnc(-c3ccc(Cl)cc3)[nH]2)cc1O` [Example 25-1, 2-(4-Chlorophenyl)-3H-imidazole-4-carboxylic acid[1-(3-hydroxy-4-methoxyphenyl)methylidene]hydrazide], the minimal effective concentration was determined as 10 µM. Next, `COc1cc(F)ccc1-c1cc(NC(=O)OCc2ccc3c(c2)nc2n3CCOC2)n(C)n1` [Example 9-245]: 0.025 µM; `COc1ccc(/C=N/NC(=O)c2sc(-c3ccc(Cl)cc3)nc2C)c(Cl)c1O` [Example 23-61]: 1 µM. For `CCc1nc(-c2ccc(C)cc2C)sc1NC(=O)OCc1ccc2c(cnn2CC)c1` [Example 9-175], the minimal effective concentration came to 0.1 µM. Next, `CCc1nc(-c2ccc(Cl)cc2C)sc1NC(=O)OCc1ccc2c(cnn2CC)c1` [Example 9-362]: 0.025 µM. With `COc1ccccc1-c1nc(C)c(NC(=O)OCc2ccc3c(c2)nc2n3CCCC2)s1` [Example 9-110], the minimal effective concentration stood at 1 µM. With `CCn1ncc2cc(COC(=O)Nc3sc(-c4ccc(Cl)cc4C)nc3C)ccc21` [Example 9-141] the figure was 0.025 µM. With `COc1cc(F)ccc1-c1cc(COC(=O)Nc2ccc3c(c2)nc2n3CCOC2)n(C)n1` [Example 13-97] the figure was 0.00625 µM. As for `COc1ccc(CN(C)NC(=O)c2sc(-c3cccc(C)c3C)nc2C)cc1` [Example 16-5], the minimal effective concentration was 10 µM. On to `CCn1nc(-c2ccc(F)cc2OC)cc1NC(=O)OCc1ccc2c(c1)nc1n2CCOC1` [Example 9-246], for which the minimal effective concentration turned out to be 0.1 µM.

As to `Cc1cc(Cl)ccc1-c1nc(C)c(C(=O)NN(C)Cc2ccc3c(ccn3C)c2)s1` [Example 17-2], the minimal effective concentration stood at 0.025 µM. Turning to `CCn1nc(-c2ccc(F)cc2OC)cc1NC(=O)OCc1ccc2c(c1)ncn2CC` [Example 9-220], the minimal effective concentration is 0.1 µM. Next, `CCn1ncc2cc(NC(=O)OCc3sc(-c4ccc(F)cc4C)nc3C)ccc21` [Example 13-44]: 0.1 µM. With `COc1cc(C)ccc1-c1cc(NC(=O)OCc2ccc3c(c2)nc2n3CCOC2)n(C)n1` [Example 9-249] the figure was 0.00625 µM. For `CCc1nc(-c2ccc(F)cc2C)sc1NC(=O)OCc1ccc2nn(C)cc2c1` [Example 9-363], the minimal effective concentration was found to be 1 µM.

With `COc1cc(Cl)ccc1-c1nc(C)c(COC(=O)Nc2ccc3c(c2)ncn3C)s1` [Example 13-5], the minimal effective concentration worked out at 0.1 µM. Next, `CCc1nc(-c2ccccc2OC)sc1NC(=O)OCc1ccc2c(c1)nc1n2CCCC1` [Example 9-351]: 1 µM. With `CCn1cnc2cc(NC(=O)OCc3sc(-c4ccc(F)cc4Cl)nc3C)ccc21` [Example 13-18] the figure was 0.025 µM; with `CCn1cnc2cc(COC(=O)Nc3cc(-c4ccc(Cl)cc4Cl)nn3C)ccc21` [Example 9-209], 0.025 µM; with `CCn1cc2cc(COC(=O)Nc3sc(-c4ccc(F)cc4C)nc3C)ccc2n1` [Example 9-158], 1 µM. Turning to `CCc1ccccc1-c1nc(C)c(NC(=O)OCc2ccc3c(c2)nc2n3CCOC2)s1` [Example 9-90], the minimal effective concentration turned out to be 0.1 µM. Next, `Cc1cc(/C=N/NC(=O)c2sc(-c3ccc(Cl)cc3C)nc2C)ccc1O` [Example 23-47]: 1 µM; `COc1ccc(/C=N/NC(=O)c2sc(-c3ccc(Cl)cc3OC)nc2C)cc1O` [Example 23-74]: 0.1 µM; `Cc1ccc(-c2nc(C)c(COC(=O)Nc3ccc4c(c3)nc3n4CCCC3)s2)c(C)c1` [Example 13-33]: 0.1 µM. With `CCn1c(C)nc2cc(COC(=O)Nc3sc(-c4ccc(C)cc4C)nc3C)ccc21` [Example 9-88] the figure was 0.1 µM. With `COc1ccc(/C=N/NC(=O)c2sc(-c3ccc(F)cc3)nc2C)cc1O` [Example 23-73] the figure was 0.1 µM. Regarding `COc1ccc(-c2nc(C)c(NC(=O)OCc3ccc4ncsc4c3)s2)c(OC)c1` [Example 36-3], the minimal effective concentration worked out at 10 µM. Regarding `COc1cc(F)ccc1-c1nc(C)c(NC(=O)OCc2ccc3c(c2)nc2n3CCOC2)s1` [Example 9-92], the minimal effective concentration was determined as 0.00625 µM. With `COc1ccc(CN(C)NC(=O)c2cc(-c3ccccc3OC)oc2C)cc1` [Example 20-1, 5-(2-Methoxyphenyl)-2-methylfuran-3-carboxylic acid N′-(4-methoxybenzyl)-N′-methyl hydrazide] the figure was 10 µM; with `CCc1nc(-c2ccc(Cl)cc2)sc1C(=O)N/N=C/c1ccc(O)c(C)c1` [Example 23-108], 10 µM; with `Cc1nc(-c2ccccc2Cl)sc1C(=O)N/N=C/c1ccc(OC(F)F)c(O)c1` [Example 23-116], 1 µM. Next, `COc1cc(Cl)ccc1-c1nc(C)c(NC(=O)OCc2cccc(N(C)C)c2)s1` [Example 9-11]: 10 µM. Turning to `COc1cc(Cl)ccc1-c1nc(C)c(NC(=O)OCc2ccc3c(c2)CCO3)s1` [Example 9-7], the minimal effective concentration is 10 µM. With `Cc1ccc(-c2nc(C)c(NC(=O)OCc3ccc4sc(C)nc4c3)s2)c(C)c1` [Example 37-3] the figure was 1 µM; with `Cc1nc(-c2ccccc2F)sc1NC(=O)OCc1ccc2c(c1)ncn2C` [Example 9-43], 1 µM.

For `COc1ccc(/C=N/NC(=O)c2cc(-c3ccc(Cl)cc3OC)cn2C)cc1` [Example 23-168, 4-(4-Chloro-2-methoxyphenyl)-1-methyl-1H-pyrrole-2-carboxylic acid (4-methoxybenzylidene)hydrazide], the minimal effective concentration was 1 µM. With `COc1ccc(/C=N/NC(=O)c2sc(-c3ccccn3)nc2C)cc1O` [Example 23-28] the figure was 1 µM. Next, `COc1cc(Cl)ccc1-c1nc(C)c(NC(=O)OCc2ccc3c(c2)nc2n3CCC(C)C2)s1` (centres unmarked) [Example 9-120]: 0.1 µM; `Cc1ccc(-c2nc(C)c(NC(=O)OCc3ccc4c(cnn4C)c3)s2)c(C)c1` [Example 9-130]: 0.025 µM; `CCn1cnc2cc(COC(=O)Nc3cc(-c4ccc(Cl)cc4OC)nn3C)ccc21` [Example 9-223]: 0.00625 µM. Next, `Cc1ccc(-c2cc(NC(=O)OCc3ccc4nn(C)cc4c3)n(C)n2)c(C)c1` [Example 9-295]: 0.1 µM; `Cc1cccnc1-c1cc(C(=O)N/N=C/c2cc(C)c(O)c(C)c2)sn1` [Example 27-13]: 0.1 µM. As for `Cc1cc(Cl)ccc1-c1nc(C)c(NC(=O)OCc2ccc3c(c2)nc2n3CCC2)s1` [Example 9-107], the minimal effective concentration worked out at 0.025 µM. With `CCc1nc(-c2ccc(Cl)cc2)sc1C(=O)N/N=C/c1cc(C)c(O)c(C)c1` [Example 23-106] the figure was 1 µM; with `COc1ccc(CN(C)NC(=O)c2sc(-c3ccc(OC)cc3Cl)nc2C)cc1` [Example 16-9], 10 µM; with `Cc1cc(Cl)ccc1-c1nc(C)c(COC(=O)Nc2ccc3c(c2)ncn3C)s1` [Example 13-10], 0.00625 µM. With `Cc1cccc(-c2c[nH]c(C(=O)N/N=C/c3cc(C)c(O)c(C)c3)c2)c1C` [Example 24-1, 4-(2,3-Dimethylphenyl)-1H-pyrrole-2-carboxylic acid [1-(4-hydroxy-3,5-dimethylphenyl)methylidene]hydrazide] the figure was 1 µM. As to `COc1ccccc1-c1nc(C)c(C(=O)N/N=C/c2ccc(N3CCOCC3)cc2)s1` [Example 23-89], the minimal effective concentration turned out to be 1 µM.

`CCn1nc(-c2ccc(Cl)cc2OC)cc1NC(=O)OCc1ccc2nn(C)cc2c1` [Example 9-292]: the minimal effective concentration is 0.025 µM.

For the compound `CCc1nc(-c2ccc(Cl)cc2C)sc1NC(=O)OCc1ccc2c(c1)ncn2CC` [Example 9-345], the minimal effective concentration was determined as 0.025 µM. Next, `CCc1nc(-c2ccccc2OC)sc1NC(=O)OCc1ccc2c(c1)ncn2C` [Example 9-161]: 0.025 µM; `COc1ccc(/C=N/NC(=O)c2sc(-c3ccccc3OC)nc2C)cc1O` [Example 23-14]: 0.1 µM; `Cc1cc(Cl)ccc1-c1nc(C(F)(F)F)c(NC(=O)OCc2ccc3c(c2)ncn3C)s1` [Example 9-186]: 1 µM.

`CCc1nc(-c2ccc(Cl)cc2OC)sc1NC(=O)OCc1ccc2c(c1)nc1n2CCC1` [Example 9-170]: the minimal effective concentration worked out at 0.025 µM.
